This is an account of results in US9486440B2, “Uses of indole-ketones or indolidones as neuro-protective drugs” (UNIVERSITY OF MACAU, priority 2011, dated 2016).

The test system of data set [1] is CGNs. Briefly: MPP+-induced neurotoxicity in CGNs, MTT and LDH assays. The class given is cell-based, rat. Conditions: for MPP+-induced cell death (cell viability, MTT and LDH assays): pre-treatment 2 hours, then 35 μM MPP+ for 24 hours; for cell proliferative or cytotoxic effects of the drug alone: without MPP+, 26 hours, SU4312 1-30 μM, SU5416 30 μM, sunitinib 2 μM; for MPP+-induced neurotoxicity, co-administration: co-administrated with 35 μM MPP+, SU4312 10-20 μM, PTK787/ZK222584 10 μM, MTT at 24 hours. The method, then: All animal experiments were conducted according to the ethical guidelines of ICMS, Macau University and the Animal Care Facility, The Hong Kong Polytechnic University. Rat CGNs were prepared from 8-day-old Sprague-Dawley rats (The Animal Care Facility, The Hong Kong Polytechnic University) as described by Li et al., 2005. Briefly, neurons were seeded at a density of 2.7×10^5 cells/ml in basal modified Eagle's medium (Invitrogen) containing 10% fetal bovine serum, 25 mM KCl, 2 mM glutamine, and penicillin (100 units/ml)/streptomycin (100 μg/ml). Cytosine arabinoside (10 μM) was added to the culture medium 24 hour after plating to limit the growth of non-neuronal cells. With the use of this protocol, more than 95% of the cultured cells were granule neurons.
(§1) The percentage of surviving neurons in the presence of SU4312 and/or MPP^+ was estimated by determining the activity of mitochondrial dehydrogenases with 3(4,5-dimethylthiazol-2-yl)-2.5-diphenyltetrazolium bromide (MTT) assay (Li et al., 2007). The assay was performed according to the specifications of the manufacturer (MTT kit I; Roche Applied Science). Briefly, the neurons were cultured in 96-well plates, 10 μl of 5 mg/ml MTT labeling reagent was added to each well containing cells in 100 μl of medium, and the plates were incubated for 4 hours in a humidified incubator at 37° C. After the incubation, 100 μl of the solvating solution (0.01 N HCl in 10% SDS solution) was added to each well for 16-20 hours. Absorbance of the samples was measured at a wavelength of 570 nm with 655 nm as a reference wavelength. Unless otherwise indicated, the extent of MTT conversion in cells exposed to MPP^+ is expressed as a percentage of the control.
Cytotoxicity was determined by measuring the release of lactate dehydrogenase (LDH). Briefly, cells were precipitated by centrifugation at 500 g for 5 min at room temperature, 50 μl of the supernatants was transferred into new wells, and LDH was determined using the in vitro toxicology assay kit (Roche). The absorbance of the samples was measured at a wavelength of 490 nm with 655 nm as a reference wavelength.
Rat CGNs were prepared from 8-day-old Sprague-Dawley rats (The Animal Care Facility, The Hong Kong Polytechnic University) as described by Li et al., 2005. Briefly, neurons were seeded at a density of 2.7×10^5 cells/ml in basal modified Eagle's medium (Invitrogen) containing 10% fetal bovine serum, 25 mM KCl, 2 mM glutamine, and penicillin (100 units/ml)/streptomycin (100 μg/ml). Cytosine arabinoside (10 μM) was added to the culture medium 24 hours after plating to limit the growth of non-neuronal cells. With the use of this protocol, more than 95% of the cultured cells were granule neurons.
as §1, with “The” for “The percentage of surviving neurons in the presence of SU4312 and/or MPP^+ was estimated by determining the activity of mitochondrial dehydrogenases with 3(4,5-dimethylthiazol-2-yl)-2.5-diphenyltetrazolium bromide (MTT) assay (Li et al., 2007). The”, “incubated at 37° C.” for “incubated”, “incubator.” for “incubator at 37° C.”, “The absorbance” for “Absorbance”

The test system of data set [2] is CGNs. In words: FDA/PI double staining of CGNs after MPP+. The following applies: 20 μM, 35 μM MPP+. The class given is cell-based, rat. The method, then: Viable granule neurons were stained with fluorescein formed from fluorescein diacetate (FDA), which is de-esterified only by living cells. Propidium iodide (PI) can penetrate cell membranes of dead cells to intercalate into double-stranded nucleic acids. Briefly, after incubation with 10 μg/ml FDA and 5 μg/ml PI for 15 min, the neurons were examined and photographed using UV light microscopy; and the pictures were compared with those photographed under phase contrast microscopy.
Viable granule neurons were stained with fluorescein formed from fluorescein diacetate (FDA) by esterase in viable cells. Propidium iodide (PI) can penetrate cell membranes of dead cells to intercalate into double-stranded nucleic acids. Briefly, after incubation with 10 μg/ml of FDA and 5 μg/ml of PI for 15 min, the neurons were examined and images were acquired using UV light microscopy for comparison with photos taken under phase contrast microscopy.

Data set [3] has as its system zebrafish. Briefly: Toxicity to zebrafish. It counts as in vivo. Conditions: SU5416 10 μM, VRI 3 μM, SU4312 up to 30 μM. The method, then:
Wild-type zebrafish (AB strain) and Tg (fli-1:EGFP) transgenic zebrafish were maintained as described in the Zebrafish Handbook (Westerfield, 1993). Zebrafish embryos were generated by natural pair-wise mating (3-12 months old) and raised at 28.5° C. in embryo medium (13.7 mM NaCl, 540 μM KCl, pH 7.4, 25 μM Na2HPO4, 44 μM KH2PO4, 300 μM CaCl2, 100 μM MgSO4, 420 μM NaHCO3, pH 7.4). […] An equal concentration of DMSO in embryo medium was used as vehicle control in each experiment.
Wild-type zebrafish (AB strain) and Tg(fli-1:EGFP) transgenic zebrafish were maintained as described in the Zebrafish Handbook (Westerfield, 1993). Zebrafish embryos were generated by natural pair-wise mating (3-12 months old) and were raised at 28.5° C. in embryo medium (13.7 mM NaCl, 540 μM KCl, pH 7.4, 25 μM Na2HPO4, 44 μM KH2PO4, 300 μM CaCl2, 100 μM MgSO4, 420 μM NaHCO3, pH 7.4). […] Equal concentration of DMSO in embryo medium was used as vehicle control in each experiment.

“Also recorded” adds a separate entry of the source.

Consider `Cc1cc(C)c(/C=C2\C(=O)Nc3ccccc32)[nH]1` [SU5416, (3Z)-3-[(3,5-dimethyl-1H-pyrrol-2-yl)methylidene]-1,3-dihydro-2H-indol-2-one], for which, in data set [1], the “MPP+-induced cell death (cell viability, MTT and LDH assays)” value (shortened to “MPP+-induced cell death”) is reported as “prevented 35 μM MPP^+-induced cell death in a concentration-dependent manner”; the “cell proliferative or cytotoxic effects of the drug alone” value was “did not produce any cell proliferative or cytotoxic effects”. For the same compound, the “loss of neurons and morphological alterations (FDA/PI, phase contrast)” value in data set [2] was “significantly blocked the loss of neurons and reversed the morphological alteration”. Further, in data set [3], the toxicity to zebrafish entry was “showed toxicity to zebrafish”.
On to `CN(C)c1ccc(C=C2C(=O)Nc3ccccc32)cc1` [SU4312, 3-[4-(dimethylamino)benzylidenyl]indolin-2-one], for which, in data set [1], the “MPP+-induced neurotoxicity, co-administration” value is given as “still had neuroprotective effects”; the “MPP+-induced cell death” value is listed as “prevented MPP^+-induced cell death in a concentration-dependent manner”; the “cell proliferative or cytotoxic effects of the drug alone” value is on record as “did not affect cell proliferation or show any cytotoxic effects; also recorded: did not induce any neurotoxicity”. For the same compound, the “loss of neurons and morphological alterations (FDA/PI, phase contrast)” value in data set [2] was “significantly blocked MPP^+-induced loss of neurons and reversed MPP^+-induced morphological alterations”. The toxicity to zebrafish entry in data set [3] is “did not induce any neurotoxicity”.
`Clc1ccc(Nc2nnc(Cc3ccncc3)c3ccccc23)cc1` [PTK787/ZK222584]: in data set [1], the “MPP+-induced neurotoxicity, co-administration” value is given as “did not show neuroprotective effects”; the “MPP+-induced cell death” value is recorded as “at 3-10 μM failed to block neuronal loss in vitro”.
